Measurements: US10023561B2, “Fumagillol heterocyclic compounds and methods of making and using same” (Zafgen, Inc., priority 2015, dated 2018)
Where “and” joins values, the source holds several entries; their conditions need not be identical. Equal values may be shown once. Where a name gives a salt, the structure may show the parent alone. Read-outs that look alike come from different tables or passages of the source.

How the values were obtained:
[1] = test system: Sprague Dawley rats on 45% high fat diet; experiment: 11 day rat DIO model (body weight, food intake, hematology, blood chemistries); type: in vivo
Excerpt: The objective of this study design is to investigate the efficacy of disclosed compounds in an 11 day rat DIO model used to screen compounds for pharmacologic efficacy on endpoints related to obesity and metabolism. Effects on body weight, food intake, hematology and blood chemistries were the primary readouts of this study design. […] Rats were fed Research Diets D12451 (45% High Fat) and provided water ad libitum. Rats were received and housed in the facility for at least two or three weeks prior to start of test article administration. On Day −4 or −3, rats were randomized into study groups based on body weight and body weights were continued to be recorded daily for the duration of the study. Daily food intake was assessed starting on Study Day −2 by weighing the hopper including the food to avoid loss of food in transfer.
(§1) Compounds were formulated into a 100% DMSO stock (at 9 mg/mL) prior to the start, and further diluted into the target working concentration using the vehicle of 10% DMSO in water. Prior to test article administration, starting on Day −3 a dosing acclimation occurred with all animals receiving a subcutaneous injection of vehicle (10% DMSO) only for 3 days. Starting on Day 1, test compounds or vehicle were administered based on individual body weight, subcutaneously, once a day for 11 days. All animals were sacrificed on Day 11, approximately 2 hours following the final dosing on Day 11. After sacrifice, whole blood was collected and analyzed for hematology and blood chemistry parameters.
(§2) Compounds were tested vs. vehicle at various doses (1.0, 0.5, 0.3, 0.1, 0.03 mpk sc (mg per kg animal weight delivered subcutaneously), and the results are shown in Table 2 below.

[2] = test system: Diet Induced Obese (DIO) C57BL/6 mice; experiment: 10 day DIO mouse model (body weight, food intake, hematology, blood chemistry); type: in vivo
Excerpt: The objective of this study design was to investigate the efficacy of disclosed compounds in a 10 day DIO mouse model. Effects on body weight, food intake, hematology and blood chemistry were the primary readouts of this study design. […] Mice were fed Research Diets D12492 (60% Kcal fat, 20% Kcal carbohydrate and 20% protein) and provided water ad libitum. DIO mice were received and housed in the facility for approximately two weeks prior to the start of test article administration. On Day −4 or −3, mice were randomized into study groups based on body weight and body weights were continued to be recorded daily for the duration of the study. Daily food intake was assessed starting on Study Day −2 by weighing of the food with hopper together to avoid loss of food in transfer.
as §1, with “for 10” for “for 11”, “All mice” for “All animals”, “11, 24” for “11, approximately 2”, “Day 10.” for “Day 11.”
as §2

[3] = test system: human fibrosarcoma cell line HT-1080; experiment: HT-1080 cell proliferation assay (CellTiter-Glo, 72 hours); type: cell-based
[4] = target: recombinant human MetAP2 (Homo sapiens (Human), UniProt P50579); experiment: recombinant human MetAP2 enzyme inhibition assay (MAS peptide / amino acid oxidase / Amplex UltraRed); type: biochemical; details: recombinant human MetAP2, 25 minutes at 25° C.
recombinant human MetAP2, sequence (P50579 whole entry): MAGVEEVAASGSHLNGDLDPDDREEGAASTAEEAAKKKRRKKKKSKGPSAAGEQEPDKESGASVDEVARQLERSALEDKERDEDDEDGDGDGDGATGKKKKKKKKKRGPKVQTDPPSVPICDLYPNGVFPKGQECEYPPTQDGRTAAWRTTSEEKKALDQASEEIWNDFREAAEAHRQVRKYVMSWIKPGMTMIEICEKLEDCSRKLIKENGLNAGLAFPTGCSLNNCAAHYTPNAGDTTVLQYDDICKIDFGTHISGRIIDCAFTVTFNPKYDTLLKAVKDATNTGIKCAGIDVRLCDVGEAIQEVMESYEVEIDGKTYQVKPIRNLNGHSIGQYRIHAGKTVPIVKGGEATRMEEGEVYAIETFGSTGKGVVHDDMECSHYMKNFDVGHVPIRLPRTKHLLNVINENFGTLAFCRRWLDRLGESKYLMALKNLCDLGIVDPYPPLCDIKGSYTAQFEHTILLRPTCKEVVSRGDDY
Method: Compounds are tested for their capacity to inhibit recombinant human MetAP2 activity using the following assay.
Flag tagged Human recombinant MetAP2 expressed and isolated for use as the enzyme source. 10 mM stock solutions of compounds were prepared in 100% DMSO and further diluted in 100% DMSO required concentration to 1 mM stocks. The stock compound solutions and DMSO vehicle controls were diluted to target final compound concentrations using assay buffer to a final concentration of 50 mM HEPES containing 100 mM NaCl, pH adjusted to 7.5. The MAS peptide was formulated to a 7.5 mM stock in distilled water and prior to use further diluted 1:4. […] 40 μl of enzyme was mixed with 100 μl of MnCl2 then further diluted in assay buffer to a final concentration of 16 μg/ml. To test for compound effect on MetAP2 enzyme activity, 5 μl of test compound, 10 μl of MAS substrate/amino acid oxidase mixture, 10 μl of MetAP2 was added to test wells in a 384 well black plate with blank wells containing no enzyme, replaced with 10 μl of assay buffer. All compounds were tested in duplicate on two occasions on the same day.
The plate was sealed with a TopSeal A cover and mixed briefly on an orbital mixer at 900 rpm. The plate was incubated for a further 25 minutes at 25° C. […] At the end of the MetAP2 incubation 25 μl Amplex/HRP mixture per well was added and the plate read plate on a plate reader.

[5] = HT-1080, 72 h, read-out: HT-1080 EC50 (nM)
[6] = HT-1080 cells, 72 hours incubation, CellTiter-Glo, read-out: HT-1080 EC50

CO[C@@H]1[C@H](OC(=O)N2CC(CCN3CC(O)C3)C2)CC[C@]2(CO2)[C@H]1[C@@]1(C)O[C@@H]1CC=C(C)C [Example 6, (3R,4S,5S,6R)-5-methoxy-4-((2R,3R)-2-methyl-3-(3-methylbut-2-enyl)oxiran-2-yl)-1-oxaspiro[2.5]octan-6-yl 3-(2-(3-hydroxyazetidin-1-yl)ethyl)azetidine-1-carboxylate formate]
DIO Rat 11-day weight loss vs vehicle ([1]; rat, in vivo, formate): 0.8% and 4.6%
DIO Mouse 10-day weight loss vs vehicle ([2]; mouse, in vivo): 11.8%
EC50 [3, 5]: < 0.3 nM

CO[C@@H]1[C@H](OC(=O)N2CC(CCN3CCC(O)CC3)C2)CC[C@]2(CO2)[C@H]1[C@@]1(C)O[C@@H]1CC=C(C)C [Example 7, (3R,4S,5S,6R)-5-methoxy-4-((2R,3R)-2-methyl-3-(3-methylbut-2-en-1-yl)oxiran-2-yl)-1-oxaspiro[2.5]octan-6-yl 3-(2-(4-hydroxypiperidin-1-yl)ethyl)azetidine-1-carboxylate]
DIO Mouse 10-day weight loss vs vehicle ([2]; DIO mouse, 0.3 mpk sc once a day, 10 days): 1.8%

CO[C@@H]1[C@H](OC(=O)N2CC(CCN3CC(C)(O)C3)C2)CC[C@]2(CO2)[C@H]1[C@@]1(C)O[C@@H]1CC=C(C)C [Example 9, (3R,4S,5S,6R)-5-methoxy-4-((2R,3R)-2-methyl-3-(3-methylbut-2-enyl)oxiran-2-yl)-1-oxaspiro[2.5]octan-6-yl 3-(2-(3-hydroxy-3-methylazetidin-1-yl)ethyl)azetidine-1-carboxylate formate]
DIO Rat 11-day weight loss vs vehicle ([1]; rat, in vivo, formate): 5.5% and 4.8%
DIO Mouse 10-day weight loss vs vehicle ([2]; mouse, in vivo): 7.4%
EC50 [3, 5]: < 0.3 nM

CO[C@@H]1[C@H](OC(=O)N2CC(CCN3CC4C(C3)C4(F)F)C2)CC[C@]2(CO2)[C@H]1[C@@]1(C)O[C@@H]1CC=C(C)C (stereo partly drawn) [Example 22, (3R,4S,5S,6R)-5-methoxy-4-((2R,3R)-2-methyl-3-(3-methylbut-2-enyl)oxiran-2-yl)-1-oxaspiro[2.5]octan-6-yl 3-(2-(6,6-difluoro-3-azabicyclo[3.1.0]hexan-3-yl)ethyl)azetidine-1-carboxylate formate]
DIO Mouse 10-day weight loss vs vehicle ([2]; mouse, in vivo): 14%
EC50 [3, 5]: 0.3 to 1.3 nM

CO[C@@H]1[C@H](OC(=O)N2CC(CCCN3CCCC3)C2)CC[C@]2(CO2)[C@H]1[C@@]1(C)O[C@@H]1CC=C(C)C [Example 59, (3R,4S,5S,6R)-5-methoxy-4-((2R,3R)-2-methyl-3-(3-methylbut-2-enyl)oxiran-2-yl)-1-oxaspiro[2.5]octan-6-yl 3-(3-(pyrrolidin-1-yl)propyl)azetidine-1-carboxylate formate]
body weight loss vs vehicle at 0.3 mg/kg ([2]; 240 h, DIO mouse, 0.3 mpk sc once a day, 10 days): 9.1%
IC50 [4]: < 50 nM

CNC(=O)OC1CN(C(=O)O[C@@H]2CC[C@]3(CO3)[C@@H]([C@@]3(C)O[C@@H]3CC=C(C)C)[C@@H]2OC)C1 [Example 74, (3R,4S,5S,6R)-5-methoxy-4-((2R,3R)-2-methyl-3-(3-methylbut-2-enyl)oxiran-2-yl)-1-oxaspiro[2.5]octan-6-yl 3-(methylcarbamoyloxy)azetidine-1-carboxylate]
EC50 [3, 6]: < 0.3 nM

CCN(CC)CCNC(=O)CCC1CN(C(=O)O[C@@H]2CC[C@]3(CO3)[C@@H]([C@@]3(C)O[C@@H]3CC=C(C)C)[C@@H]2OC)C1 [Example 88, (3R,4S,5S,6R)-5-methoxy-4-((2R,3R)-2-methyl-3-(3-methylbut-2-enyl)oxiran-2-yl)-1-oxaspiro[2.5]octan-6-yl 3-(3-(2-(diethylamino)ethylamino)-3-oxopropyl)azetidine-1-carboxylate formate]
DIO Rat 11-day weight loss vs vehicle ([1]; rat, in vivo): 4.4%
DIO Mouse 10-day weight loss vs vehicle ([2]; mouse, in vivo): 9%
EC50 [3, 5]: 0.3 to 1.3 nM

CCN(CC)CCC1CN(C(=O)O[C@@H]2CC[C@]3(CO3)[C@@H]([C@@]3(C)O[C@@H]3CC=C(C)C)[C@@H]2OC)C1 [Example 103, (3R,4S,5S,6R)-5-methoxy-4-((2R,3R)-2-methyl-3-(3-methylbut-2-enyl)oxiran-2-yl)-1-oxaspiro[2.5]octan-6-yl 3-(2-(diethylamino)ethyl)azetidine-1-carboxylate]
EC50 [3, 6]: < 0.3 nM

CCN(CC)CCC1CCN1C(=O)O[C@@H]1CC[C@]2(CO2)[C@@H]([C@@]2(C)O[C@@H]2CC=C(C)C)[C@@H]1OC (stereo partly drawn) [Example 106, (3R,4S,5S,6R)-5-methoxy-4-((2R,3R)-2-methyl-3-(3-methylbut-2-enyl)oxiran-2-yl)-1-oxaspiro[2.5]octan-6-yl 2-(2-(diethylamino)ethyl)azetidine-1-carboxylate]
DIO Rat 11-day weight loss vs vehicle ([1]; DIO rat, 0.5 mpk sc once a day, 11 days): 4.82%
DIO Mouse 10-day weight loss vs vehicle ([2]; DIO mouse, 0.1 mpk sc once a day, 10 days): 2%
